# Where a name gives a salt, the structure may show the parent alone. Read-outs that look alike come from different tables or passages of the source.
# What was measured:
# Test in all cases: AK assay 384-well format, Prestwick library screening
# E. faecium = assay type: cell-based, Enterococcus faecium; details: 50 μM final drug concentration; for fold induction at 50 µM: Enterococcus faecium, 3 h
# [1] = tested on: S. aureus strain USA300-0114; assay type: cell-based, Staphylococcus aureus; details: 50 μM final drug concentration; for fold induction at 50 µM: Staphylococcus aureus, USA300, 3 h
# K. pneumoniae = assay type: cell-based, Klebsiella pneumoniae; details: 50 μM final drug concentration; for fold induction at 50 µM: Klebsiella pneumoniae, 3 h
# [2] = tested on: A. baumannii strain 98-37-09; assay type: cell-based, Acinetobacter baumannii; details: 50 μM final drug concentration; for fold induction at 50 µM: Acinetobacter baumannii, 983709, 3 h
# P. aeruginosa = assay type: cell-based, Pseudomonas aeruginosa; details: 50 μM final drug concentration; for fold induction at 50 µM: Pseudomonas aeruginosa, 3 h
# E. cloacae = assay type: cell-based, Enterobacter cloacae; details: 50 μM final drug concentration; for fold induction at 50 µM: Enterobacter cloacae, 3 h
# E. coli = assay type: cell-based, Escherichia coli; details: 50 μM final drug concentration; for fold induction at 50 µM: Escherichia coli, 3 h
# [3] = planktonic, cutoff for positive 3-fold increase
# [4] = planktonic E. faecium, 384-well, cutoff for positive-scoring molecules 3-fold increase, read-out: AK-based Prestwick Library Screening Results: E. faecium (increase in extracellular AK activity)
# [5] = planktonic S. aureus, 384-well, cutoff for positive-scoring molecules 3-fold increase, read-out: AK-based Prestwick Library Screening Results: S. aureus (increase in extracellular AK activity)
# [6] = planktonic K. pneumoniae, 384-well, cutoff for positive-scoring molecules 3-fold increase, read-out: AK-based Prestwick Library Screening Results: K. pneumoniae (increase in extracellular AK activity)
# [7] = planktonic A. baumannii, 384-well, cutoff for positive-scoring molecules 3-fold increase, read-out: AK-based Prestwick Library Screening Results: A. baumannii (increase in extracellular AK activity)
# [8] = planktonic P. aeruginosa, 384-well, cutoff for positive-scoring molecules 3-fold increase, read-out: AK-based Prestwick Library Screening Results: P. aeruginosa (increase in extracellular AK activity)
# [9] = planktonic E. cloacae, 384-well, cutoff for positive-scoring molecules 3-fold increase, read-out: AK-based Prestwick Library Screening Results: E. cloacae (increase in extracellular AK activity)
# [10] = planktonic E. coli, 384-well, cutoff for positive-scoring molecules 3-fold increase, read-out: AK-based Prestwick Library Screening Results: E. coli (increase in extracellular AK activity)
smiles,measurement,setting,value
CNC1(C)C2CCC(C2)C1(C)C (centres unmarked) [Mecamylamine hydrochloride],fold induction at 50 µM,"E. faecium; planktonic E. faecium, positive cutoff 3-fold increase, read-out: AK-based Prestwick library screening result, E. faecium (fold increase in extracellular AK activity)",1.1
same,fold induction at 50 µM,"[1]; planktonic S. aureus, positive cutoff 3-fold increase, read-out: AK-based Prestwick library screening result, S. aureus (fold increase in extracellular AK activity)",1.4
same,fold induction at 50 µM,"K. pneumoniae; planktonic K. pneumoniae, positive cutoff 3-fold increase, read-out: AK-based Prestwick library screening result, K. pneumoniae (fold increase in extracellular AK activity)",1
same,fold induction at 50 µM,"[2]; planktonic A. baumannii, positive cutoff 3-fold increase, read-out: AK-based Prestwick library screening result, A. baumannii (fold increase in extracellular AK activity)",1.2
same,fold induction at 50 µM,"P. aeruginosa; planktonic P. aeruginosa, positive cutoff 3-fold increase, read-out: AK-based Prestwick library screening result, P. aeruginosa (fold increase in extracellular AK activity)",1.1
same,fold induction at 50 µM,"E. cloacae; planktonic E. cloacae, positive cutoff 3-fold increase, read-out: AK-based Prestwick library screening result, E. cloacae (fold increase in extracellular AK activity)",1.6
same,fold induction at 50 µM,"E. coli; planktonic E. coli, positive cutoff 3-fold increase, read-out: AK-based Prestwick library screening result, E. coli (fold increase in extracellular AK activity)",1.4
C=C1c2c(Cl)ccc(O)c2C(=O)C2=C(O)[C@]3(O)C(=O)C(C(N)=O)=C(O)[C@@H](N(C)C)[C@@H]3[C@@H](O)[C@H]12.O=C(O)c1cc(S(=O)(=O)O)ccc1O [Meclocycline sulfosalicylate],"AK-based Prestwick Library Screening Results, E. faecium (fold increase in extracellular AK activity)",E. faecium; [3],1.0
same,"AK-based Prestwick Library Screening Results, S. aureus (fold increase in extracellular AK activity)",[1]; [3],4.3
same,"AK-based Prestwick Library Screening Results, K. pneumoniae (fold increase in extracellular AK activity)",K. pneumoniae; [3],0.3
same,"AK-based Prestwick Library Screening Results, A. baumannii (fold increase in extracellular AK activity)",[2]; [3],3.2
same,"AK-based Prestwick Library Screening Results, P. aeruginosa (fold increase in extracellular AK activity)",P. aeruginosa; [3],0.5
same,"AK-based Prestwick Library Screening Results, E. cloacae (fold increase in extracellular AK activity)",E. cloacae; [3],2.1
same,"AK-based Prestwick Library Screening Results, E. coli (fold increase in extracellular AK activity)",E. coli; [3],0.8
CN(C)CCOC(=O)COc1ccc(Cl)cc1 [Meclofenoxate hydrochloride],fold induction at 50 µM,"E. faecium; planktonic, […], read-out: AK-based Prestwick Library Screening Results, E. faecium (fold increase in extracellular AK activity)",1
same,fold induction at 50 µM,"[1]; planktonic, […], read-out: AK-based Prestwick Library Screening Results, S. aureus (fold increase in extracellular AK activity)",1.2
same,fold induction at 50 µM,"K. pneumoniae; planktonic, […], read-out: AK-based Prestwick Library Screening Results, K. pneumoniae (fold increase in extracellular AK activity)",1
same,fold induction at 50 µM,"[2]; planktonic, […], read-out: AK-based Prestwick Library Screening Results, A. baumannii (fold increase in extracellular AK activity)",1
same,fold induction at 50 µM,"P. aeruginosa; planktonic, […], read-out: AK-based Prestwick Library Screening Results, P. aeruginosa (fold increase in extracellular AK activity)",1.1
same,fold induction at 50 µM,"E. cloacae; planktonic, […], read-out: AK-based Prestwick Library Screening Results, E. cloacae (fold increase in extracellular AK activity)",1.4
same,fold induction at 50 µM,"E. coli; planktonic, […], read-out: AK-based Prestwick Library Screening Results, E. coli (fold increase in extracellular AK activity)",1.2
Cc1cccc(CN2CCN(C(c3ccccc3)c3ccc(Cl)cc3)CC2)c1 (centres unmarked) [Meclozine dihydrochloride],fold induction at 50 µM,"E. faecium; planktonic, cutoff for positive 3-fold increase, read-out: AK-based Prestwick Library Screening Results, E. faecium (fold increase in extracellular AK activity)",1.2
same,fold induction at 50 µM,"[1]; planktonic, cutoff for positive 3-fold increase, read-out: AK-based Prestwick Library Screening Results, S. aureus (fold increase in extracellular AK activity)",2.1
same,fold induction at 50 µM,"K. pneumoniae; planktonic, cutoff for positive 3-fold increase, read-out: AK-based Prestwick Library Screening Results, K. pneumoniae (fold increase in extracellular AK activity)",0.9
same,fold induction at 50 µM,"[2]; planktonic, cutoff for positive 3-fold increase, read-out: AK-based Prestwick Library Screening Results, A. baumannii (fold increase in extracellular AK activity)",1.9
same,fold induction at 50 µM,"P. aeruginosa; planktonic, cutoff for positive 3-fold increase, read-out: AK-based Prestwick Library Screening Results, P. aeruginosa (fold increase in extracellular AK activity)",1.2
same,fold induction at 50 µM,"E. cloacae; planktonic, cutoff for positive 3-fold increase, read-out: AK-based Prestwick Library Screening Results, E. cloacae (fold increase in extracellular AK activity)",1.4
same,fold induction at 50 µM,"E. coli; planktonic, cutoff for positive 3-fold increase, read-out: AK-based Prestwick Library Screening Results, E. coli (fold increase in extracellular AK activity)",1.2
CC(=O)[C@H]1CC[C@H]2[C@@H]3C[C@H](C)C4=CC(=O)CC[C@]4(C)[C@H]3[C@@H](O)C[C@]12C [Medrysone],fold induction at 50 µM,"E. faecium; planktonic, cutoff for positive-scoring molecules 3-fold increase, read-out: AK-based Prestwick Library Screening Results, E. faecium (fold increase in extracellular AK activity)",1
same,fold induction at 50 µM,"[1]; planktonic, cutoff for positive-scoring molecules 3-fold increase, read-out: AK-based Prestwick Library Screening Results, S. aureus (fold increase in extracellular AK activity)",0.6
same,fold induction at 50 µM,"K. pneumoniae; planktonic, cutoff for positive-scoring molecules 3-fold increase, read-out: AK-based Prestwick Library Screening Results, K. pneumoniae (fold increase in extracellular AK activity)",0.7
same,fold induction at 50 µM,"[2]; planktonic, cutoff for positive-scoring molecules 3-fold increase, read-out: AK-based Prestwick Library Screening Results, A. baumannii (fold increase in extracellular AK activity)",0.7
same,fold induction at 50 µM,"P. aeruginosa; planktonic, cutoff for positive-scoring molecules 3-fold increase, read-out: AK-based Prestwick Library Screening Results, P. aeruginosa (fold increase in extracellular AK activity)",0.8
same,fold induction at 50 µM,"E. cloacae; planktonic, cutoff for positive-scoring molecules 3-fold increase, read-out: AK-based Prestwick Library Screening Results, E. cloacae (fold increase in extracellular AK activity)",1
same,fold induction at 50 µM,"E. coli; planktonic, cutoff for positive-scoring molecules 3-fold increase, read-out: AK-based Prestwick Library Screening Results, E. coli (fold increase in extracellular AK activity)",0.7
Cc1cccc(Nc2ccccc2C(=O)O)c1C [Mefenamic acid],fold induction at 50 µM,E. faecium; [4],0.9
same,fold induction at 50 µM,[1]; [5],0.7
same,fold induction at 50 µM,K. pneumoniae; [6],0.8
same,fold induction at 50 µM,[2]; [7],1.2
same,fold induction at 50 µM,P. aeruginosa; [8],0.9
same,fold induction at 50 µM,E. cloacae; [9],1.6
same,fold induction at 50 µM,E. coli; [10],0.9
CCN(CC)CCNC(=O)COc1ccc(OC)cc1 [Mefexamide hydrochloride],fold induction at 50 µM,E. faecium; [4],1
same,fold induction at 50 µM,[1]; [5],0.9
same,fold induction at 50 µM,K. pneumoniae; [6],0.9
same,fold induction at 50 µM,[2]; [7],1
same,fold induction at 50 µM,P. aeruginosa; [8],1.1
same,fold induction at 50 µM,E. cloacae; [9],1.3
same,fold induction at 50 µM,E. coli; [10],1.2
OC(c1cc(C(F)(F)F)nc2c(C(F)(F)F)cccc12)C1CCCCN1 (centres unmarked) [Mefloquine hydrochloride],fold induction at 50 µM,"E. faecium; 384-well format, cutoff for positive-scoring molecules 3-fold increase, read-out: AK-based Prestwick Library Screening Results, E. faecium (increase in extracellular AK activity)",1
same,fold induction at 50 µM,"[1]; 384-well format, cutoff for positive-scoring molecules 3-fold increase, read-out: AK-based Prestwick Library Screening Results, S. aureus (increase in extracellular AK activity)",3.2
same,fold induction at 50 µM,"K. pneumoniae; 384-well format, cutoff for positive-scoring molecules 3-fold increase, read-out: AK-based Prestwick Library Screening Results, K. pneumoniae (increase in extracellular AK activity)",1.3
same,fold induction at 50 µM,"[2]; 384-well format, cutoff for positive-scoring molecules 3-fold increase, read-out: AK-based Prestwick Library Screening Results, A. baumannii (increase in extracellular AK activity)",2.6
same,fold induction at 50 µM,"P. aeruginosa; 384-well format, cutoff for positive-scoring molecules 3-fold increase, read-out: AK-based Prestwick Library Screening Results, P. aeruginosa (increase in extracellular AK activity)",1.1
same,fold induction at 50 µM,"E. cloacae; 384-well format, cutoff for positive-scoring molecules 3-fold increase, read-out: AK-based Prestwick Library Screening Results, E. cloacae (increase in extracellular AK activity)",1.2
same,fold induction at 50 µM,"E. coli; 384-well format, cutoff for positive-scoring molecules 3-fold increase, read-out: AK-based Prestwick Library Screening Results, E. coli (increase in extracellular AK activity)",1.3

# Reference: patent US10004701B2, “Methods and compositions for treating infection” (UNIVERSITY OF ROCHESTER, priority 2012, dated 2018)
